Consider one molecule from ChEMBL document CHEMBL5338738, “Discovery of Novel Sesquiterpene Lactone Derivatives as Potent PKM2 Activators for the Treatment of Ulcerative Colitis” (J Med Chem, 2023).

For orientation: half-life means the time needed for the level to fall by half in the phase considered. Read a high half-life as slow decline.

Active and inactive are the calls of the source.

Data set [1] has as its system Mus musculus. As to the kind of experiment: Anti-colitis activity against DSS-induced ulcerative colitis C57BL/6 mouse model assessed as downregulation of IL17a mRNA expression level in mesenteric lymph nodes at 12.5 to 25 mg/kg, po for 10 days consecutively by qPCR assay. The conditions noted are these: dose 12.5-25 mg/kg, time 10.0 day. Type of data set: functional, organism-based.

Data set [2] relates to Mus musculus. As to the kind of experiment: Anti-colitis activity against DSS-induced ulcerative colitis C57BL/6 mouse model assessed as downregulation of Foxp3 mRNA expression level in colon at 6.25 to 25 mg/kg, po for 10 days consecutively by qPCR assay. Type of data set: functional, organism-based. The note with it: dose 6.25-25 mg/kg, time 10.0 day.
A short description of data set [3]: Half life in Sprague-Dawley rat at 8 mg/kg,iv and measured upto 24 hrs by LC-MS/MS analysis. Type of data set: ADME, organism-based. The conditions noted are these: in vivo.
The test system of data set [4] is CD4+ve Th. As to the kind of experiment: Inhibition of Th17 cells differentiation in anti-CD3/CD28 stimulated C57BL/6 mouse mesenteric lymph node CD4+ve Th cells assessed as decrease in total PKM2 expression at 0.1 to 3 uM incubated for 96 hrs in presence of recombinant human TGF-beta, recombinant mouse IL-6 and recombinant mouse IL-23 by Western blot analysis. The data set is classed as functional, cell-based. The conditions noted are these: dose 0.1-3 µM. (In general: In western blotting, separated proteins are transferred to a membrane and probed.)

For data set [5], the system named is Mus musculus. As to the kind of experiment: Anti-colitis activity against DSS-induced ulcerative colitis C57BL/6 mouse model assessed as downregulation of IL10 mRNA expression level in mesenteric lymph nodes at 6.25 to 25 mg/kg, po for 10 days consecutively by qPCR assay. Type of data set: functional, organism-based. The note with it: dose 6.25-25 mg/kg, time 10.0 day. For orientation: Real-time PCR tracks product formation cycle by cycle.

Data set [6] has as its system CD4+ve Th. As to the kind of experiment: Inhibition of aerobic glycolysis in anti-CD3/CD28 stimulated C57BL/6 mouse mesenteric lymph node CD4+ve Th cells assessed as downregulation of Glut1 mRNA expression level at 0.3 to 3 uM incubated for 96 hrs in presence of recombinant human TGF-beta, recombinant mouse IL-6 and recombinant mouse IL-23 by qPCR analysis. The note with it: dose 0.3-3 µM. The data set is classed as functional, cell-based.

As for `C=C1C(=O)O[C@H]2[C@H]1CC[C@@]1(C)[C@@H](CC[C@@]3(C)O[C@@H]23)C1(F)F`, the outcome in the data set with Mus musculus [1] was Active. Moreover, the result in the data set with Mus musculus [2] and in the data set on Mus musculus [5] was inactive. For the same molecule, the half-life in data set [3] was 2 h. Besides, the inhibition result in the data set with CD4+ve Th [4] and in the data set on CD4+ve Th [6] was “Active” in each case.
